The numbers were not newly measured in US8865753B2, “Compounds as cannabinoid receptor ligands” (priority 2007, dated 2014), which cites them from elsewhere.

The subject of data set [1] is animal models. The conditions noted are these: animal models of acute thermal pain, persistent pain, inflammatory pain and neuropathic pain.
Data set [2] deals with rodent. The conditions noted are these: rodent models of neuropathic, incisional, and both chronic and acute inflammatory pain.
For data set [3], the system named is rat. Conditions: rat formalin model of persistent pain; Hanus et al. 1999.
Data set [4] has as its system microglial. The conditions noted are these: in vitro; Ramirez et al. 2005.
Data set [5] concerns apolipoprotein E knockout mice. The conditions noted are these: Steffens et al. 2005.
The subject of data set [6] is osteoclast. The conditions noted are these: Ralston et al. 2005.
In data set [7] the test system is mice. The conditions noted are these: model for post-menopausal osteoporosis, Ralston et al. 2005.

Regarding `CN1CCCCC1Cn1cc(C(=O)c2cc([N+](=O)[O-])ccc2I)c2ccccc21` (stereo not drawn) [AM-1241], the analgesic efficacy result in data set [1] is given as “robust analgesic efficacy”. As for `COc1ccc2c(c1)c(CCN1CCOCC1)c(C)n2C(=O)c1cccc(Cl)c1Cl` [GW405833], in data set [2], the “efficacy in pain models” value was “efficacious”. For the molecule `CCCCCCC(C)(C)c1cc(OC)c([C@@H]2C=C(CO)[C@@H]3C[C@H]2C3(C)C)c(OC)c1` [HU-308], the antinociceptive response result in data set [3] is given as “elicits an antinociceptive response”. As to `CCCC(C)(C)c1ccc2c(c1)OC(C)(C)[C@@H]1CC=C(C)C[C@@H]21` [JWH-133], the “β-amyloid-induced microglial activation and neurotoxicity” value in data set [4] is “abrogated”. On to (−)-Δ^9-Tetrahydrocannabinol [THC], for which the “progression of atherosclerotic lesions” value in data set [5] (low doses) was “slowed the progression of atherosclerotic lesions”.

As for SR144528, the “blockade of the effects of JWH-133” value in data set [4] is recorded as “blocked”. Further, the osteoclast activity result in data set [6] is listed as “inhibit osteoclast activity”. The ovariectomy-induced bone loss result in data set [7] was “reverse ovariectomy-induced bone loss”. In data set [5], the “inhibition of the effects of THC on atherosclerotic lesions” value is recorded as “inhibited”.
